Test results reported in patent US9174979B2, “Phenanthroindolizidine compound and NFκB inhibitor containing same as active ingredient” (KABUSHIKI KAISHA YAKULT HONSHA, priority 2008, dated 2015).
Marks after values point to notes of the source that are not given here.

Key:
[1] = test system: human non-small cell lung cancer A549 cells; assay: Inhibitory action on the proliferation of A549 cells; format: cell-based; details: 96 hours culture, TetraColor ONE; for IC50: Homo sapiens, A549
Protocol: (§1) The action of the phenanthroindolizidine alkaloid compound of the present invention on the proliferation of human colon cancer SW480 cells, HT-29 cells, and human non-small cell lung cancer A549 cells was studied. The SW480 cells were suspended in a 10% FBS/RPMI1640 and then seeded in a 96-well microplate, followed by culturing in 5% CO2 at 37° C. (2000 cells/well). The A549 cells and the HT-29 cells were each suspended in a DMEM medium containing 10% FBS, 100 U/mL penicillin, and 100 μg/mL streptomycin (10% FBS/DMEM) and a DMEM F-12 HAM medium containing 10% FBS, 100 U/mL penicillin, and 100 μg/mL streptomycin (10% FBS/DMEM F12 HAM), and then seeded in 96-well microplates, followed by culturing in 5% CO2 at 37° C. (1000 cells/well). After an overnight culture, the compound of the present invention was added, followed by further culturing for 48 hours (SW480 cells) and 96 hours (A549 cells and HT-29 cells). After culturing, the number of viable cells was counted using TetraColor ONE (Seikagaku Corporation) in accordance with the attached operating procedure. The results were expressed as the concentration of a test compound needed for 50% inhibition of the proliferation of the cells (IC50).

[2] = test system: human colon cancer HT-29 cells; assay: Inhibitory action on the proliferation of HT-29 cells; format: cell-based; details: 96 hours culture, TetraColor ONE; for IC50: Homo sapiens, HT-29
Protocol: as §1

[3] = test system: SV40 promoter; assay: SV40 promoter luciferase reporter assay in SW480/SV40-Luc cells; format: cell-based, human; details: for IC50: Homo sapiens, SW480, read-out: SV40 promoter inhibitory activity IC50
From the text: (§2) The action of the phenanthroindolizidine alkaloid compound of the present invention on the NFκB activity was studied in a luciferase assay. Human colon cancer SW480 cells were transfected with pNFκB-Luc Plasmid (Stratagene), which is a reporter vector in which a five-time tandem repeat of the NFκB responsive element (NRE) is integrated into the upstream of the luciferase gene, using Lipofectamine 2000 (Invitrogen Corporation) in accordance with the attached operating procedure. Subsequently, the cells were cultured in an RPMI1640 medium containing 10% FBS, 100 U/mL penicillin, 100 μg/mL streptomycin, and 0.5 mg/mL G418 to produce SW480 cells having the luciferase gene, the expression of which is regulated by NRE, stably introduced therein (SW480/NRE-Luc cells). Likewise, SW480 cells were transfected with pGL3-Control Vector (Promega Corporation), which is a reporter vector in which the SV40 promoter is integrated into the upstream of the luciferase gene, to produce SW480 cells having the luciferase gene, the expression of which is regulated by the SV40 promoter, stably introduced therein (SW480/SV40-Luc cells). The SW480/NRE-Luc cells or the SW480/SV40-Luc cells were suspended in an RPMI1640 medium containing 10% FBS, 100 U/mL penicillin, and 100 μg/mL streptomycin (10% FBS/RPMI1640), and then seeded in a 96-well microplate, followed by culturing under conditions of 5% CO2 and at 37° C. (5000 cells/well). After an overnight culture, the compound of the present invention was added, followed by culturing for one hour. Further, 50 ng/mL TNFα (Sigma-Aldrich Corporation) was added, followed by culturing for four hours. Subsequently, a Steady-Glo Luciferase Assay reagent (Promega Corporation) was added, and the luminescent intensity was detected by SpectraMax M5e (Molecular Devices, Inc.) to measure the intracellular luciferase activity. It is to be noted that the action of the compound of the present invention on the NFκB activity or the SV40 promoter activity was shown as IC50 values (the concentration of a test compound needed for 50% inhibition of the induction of the luciferase expression).

[4] = test system: human colon cancer SW480 cells; assay: Inhibitory action on the proliferation of SW480 cells; format: cell-based; details: 48 hours culture, TetraColor ONE; for IC50: Homo sapiens, SW480
Protocol: as §1

[5] = test system: mice; assay: Animal toxicity test in mice transplanted with Meth A cells; format: in vivo, mouse; details: intravenous on days 1, 5, 9, observed for three weeks
Protocol: Also, the toxicity of known phenanthroindolizidine alkaloid compounds in mice, namely (12aS,13S)-6,7-dimethoxy-9,10,11,12,12a,13-hexahydro-9a-aza-cyclopenta[b]triphenylene-3,13-diol (known compound 1; refer to WO01/023384) and (12aS,13S)-3,6,7-trimethoxy-9,10,11,12,12a,13-hexahydro-9a-aza-cyclopenta[b]triphenylene-13-ol (known compound 2; refer to Planta Med., 2002, 68: 186-188), was simultaneously studied. To a control group, a physiological saline solution as a solvent, was administered.

[6] = test system: NFκB; assay: NFκB luciferase reporter assay in SW480/NRE-Luc cells stimulated with TNFα; format: cell-based, human; details: for IC50: Homo sapiens, SW480, read-out: NFκB inhibitory activity IC50
From the text: as §2

[7] = test system: mouse fibrosarcoma Meth A cells; assay: Antitumor effect in mice transplanted with mouse fibrosarcoma Meth A cells; format: in vivo; details: intravenous on days 1, 5, 9, BALB/c mice, tumor weight on day 21
Protocol: The antitumor effect of the phenanthroindolizidine alkaloid compound of the present invention in vivo was studied using mice transplanted with mouse fibrosarcoma Meth A cells. Meth A cells were transplanted subcutaneously in the inguinal region of male 7-week-old BALB/c mice (2.5×10^5 cells/mouse). Subsequently, on days 1, 5, and 9, the compound of the present invention was intravenously administered. To a control group, physiological saline as a solvent, was administered. On day 21 after the cell transplantation, tumor was excised and measured for its weight, and subsequently a tumor growth-inhibition rate IR (%) was obtained by the following formula. Tumor growth-inhibition rate IR(%)=(1−the weight of the tumor in an administration group/the weight of the tumor in a control group)×100

[8] = Measurement of solubility; details: saline or isotonic
From the text: In in vivo studies, the phenanthroindolizidine alkaloid compounds were used in the form of a salt.

[9] = test system: mice with TPA-induced ear edema; assay: Anti-inflammatory effect in mice with TPA-induced ear edema; format: in vivo, mouse; details: intraperitoneal, 30 minutes before TPA 5 μg/ear; ICR mice; four hours after TPA
Protocol: The anti-inflammatory effect of the phenanthroindolizidine alkaloid compound of the present invention in vivo was studied using mice with phorbol 12-myristate 13-acetate (TPA)-induced ear edema. Compound 11, a compound of the present invention, was intraperitoneally administered to male 6-week-old ICR mice, and after 30 minutes, TPA (Sigma-Aldrich Corporation) dissolved in acetone was applied to the front and back of the right ear of the mice (5 μg/ear). Four hours after application of TPA, the thickness of the auricle was measured by a dial thickness gauge (Ozaki Mfg Co. Ltd.). A control group was administered with a 5% glucose solution as a solvent.

[10] = test system: human colon cancer HCT116 cells; assay: Antitumor effect in mice transplanted with human colon cancer HCT116 cells; format: in vivo; details: intraperitoneal on days 1 to 5 and 8 to 12, BALB/c nude mice, tumor weight on day 21
From the text: The antitumor effect of the phenanthroindolizidine alkaloid compound of the present invention in vivo was studied using mice transplanted with human colon cancer HCT116 cells. HCT116 cells were transplanted subcutaneously in the inguinal region of male 6-week-old BALB/c nude mice (2×10^6 cells/mouse). On days 1 to 5 and on days 8 to 12 after the time at which the estimated tumor volume obtained by 1/2ab^2 (a and b indicate the major axis and the minor axis of tumor, respectively) reached approximately 100 mm^3 (day 0), the compound of the present invention was administered (intraperitoneal administration). To a control group, a 5% glucose solution as a solvent, was administered. On day 21, tumor was excised and measured for its weight, and subsequently a tumor proliferation-inhibition rate IR (%) was calculated.

Compound | IC50 [1] [ng/mL] | IC50 [2] [ng/mL] | IC50 [3] [ng/mL] | IC50 [4] [ng/mL] | Mortality rate ([5]; total dose 25 mg/kg) | Mortality rate ([5]; total dose 50 mg/kg) | IC50 [6] [ng/mL] | A549 proliferation inhibitory action IC50 [1] [ng/mL] | HT-29 proliferation inhibitory action IC50 [2] [ng/mL] | SV40 promoter inhibitory activity IC50 ([3]; SW480/SV40-Luc cells, luciferase expression) [ng/mL] | SW480 proliferation inhibitory action IC50 [4] [ng/mL] | NFκB inhibitory activity IC50 ([6]; SW480/NRE-Luc cells, 50 ng/mL TNFα, luciferase expression) [ng/mL] | Tumor growth inhibition rate IR ([7]; total dose 25 mg/kg) | Tumor growth inhibition rate IR ([7]; total dose 50 mg/kg) | solubility [8] [µg/mL] | Anti-inflammatory effect (thickness of the auricle) [9] | Tumor growth inhibition rate IR ([10]; total dose 100 mg/kg) | Tumor growth inhibition rate IR ([10]; total dose 200 mg/kg)
COc1cc2c3c(c4ccc(O)cc4c2cc1OC)C(O)C1(C)CCCN1C3.Cl (stereo not drawn) [Compound 6, 6,7-dimethoxy-12a-methyl-9,10,11,12,12a,13-hexahydro-9a-aza-cyclopenta[b]triphenylene-3,13-diol hydrochloride] | 757 | 839 | > 10000 | 3120 | 0/5 | 0/5 | 1920 |  |  |  |  |  |  |  |  |  |  | 
Cl.Oc1ccc2c3c(c4cc5c(cc4c2c1)OCO5)CN1CCC[C@H]1[C@H]3O [Compound 8, (12aS,13S)-6,7-methylenedioxy-9,10,11,12,12a,13-hexahydro-9a-aza-cyclopenta[b]triphenylene-3,13-diol hydrochloride] | 19.3 | 46.9 | > 10000 | 26.7 | 0/5 | 0/5 | 8.4 |  |  |  |  |  |  |  |  |  |  | 
CC1(C)Oc2cc3c4c(c5ccc(O)cc5c3cc2O1)[C@H](O)[C@@H]1CCCN1C4.Cl [Compound 9, (12aS,13S)-6,7-isopropylidenedioxy-9,10,11,12,12a,13-hexahydro-9a-aza-cyclopenta[b]triphenylene-3,13-diol hydrochloride] |  |  |  |  | 0/5 | 0/5 |  | 350.2 | 184.0 | >10000 | 1955.0 | 521.6 |  |  |  |  |  | 
CCOc1cc2c3c(c4ccc(O)cc4c2cc1OCC)[C@H](O)[C@@H]1CCCN1C3.Cl [Compound 10, (12aS,13S)-6,7-diethoxy-9,10,11,12,12a,13-hexahydro-9a-aza-cyclopenta[b]triphenylene-3,13-diol hydrochloride] | 0.27 | 0.47 | > 100 | 6.7 | 0/5 | 0/5 | 4.1 |  |  |  |  |  |  |  |  |  |  | 
COc1cc2c3c(c4ccc(O)cc4c2cc1OC)C[C@@H]1CCCN1C3.Cl [Compound 11, (S)-6,7-dimethoxy-9,10,11,12,12a,13-hexahydro-9a-aza-cyclopenta[b]triphenylene-3-ol hydrochloride] | 0.024 | 0.62 | > 10 | 3.8 | 0/5 | 0/5 | 1.2 |  |  |  |  |  | 52.1** % | 64.6** % | 4000 | inhibiting TPA-induced ear edema in a dose-dependent manner |  | 
COc1cc2c3c(c4ccc(O)cc4c2cc1OC)C[C@H]1CCCN1C3.Cl [Compound 12, (R)-6,7-dimethoxy-9,10,11,12,12a,13-hexahydro-9a-aza-cyclopenta[b]triphenylene-3-ol hydrochloride] | 12.7 | 50.4 | > 10000 | 50.4 | 0/5 | 0/5 | 18.1 |  |  |  |  |  | 25.3% | 58.8** % |  |  |  | 
Cl.Oc1ccc2c3c(c4cc5c(cc4c2c1)OCO5)CN1CCC[C@H]1C3 [Compound 13, (S)-6,7-methylenedioxy-9,10,11,12,12a,13-hexahydro-9a-aza-cyclopenta[b]triphenylene-3-ol hydrochloride] | 48.2 | 260 | > 10000 | 38.7 | 0/5 | 0/5 | 48.4 |  |  |  |  |  | 45.6* % | 31.5% |  |  |  | 
COc1cc2c3c(c4ccc(O)cc4c2cc1OC)CN1CCC[C@H]1[C@H]3O.Cl [Compound 15, (12aS,13S)-2,3-dimethoxy-9,10,11,12,12a,13-hexahydro-9a-aza-cyclopenta[b]triphenylene-6,13-diol hydrochloride] | 34 | 56.6 | > 10000 | 4.2 | 0/5 | 0/5 | 2 |  |  |  |  |  |  |  |  |  |  | 
(S)-6,7-dimethoxy-9,10,11,12,12a,13-hexahydro-9a-aza-cyclopenta[b]triphenylene-3-ol methanesulfonate [Compound 16] |  |  |  |  |  |  |  |  |  |  |  |  |  |  |  |  | 35.7*** % | 48.7*** %
